Here are results for eight compounds from US9615580B2, “Fused heterocyclic compound and use thereof for pest control” (Sumitomo Chemical Company, Limited, priority 2012, dated 2017).

Holding throughout (assay type): in vivo
In one assay the test system is Aphis gossypii. Put plainly: Test Example 1: foliar spray on cucumber seedling inoculated with Aphis gossypii. The note with it: 144 h, 500 ppm active ingredient, 20 ml sprayed on cucumber seedling, 6 days after spraying. The protocol:
On the other hand, on a cucumber seedling (the first true leaf stage) planted in a plastic cup was inoculated with about 30 Aphis gossypii (whole stage), and leaving it for a day. Twenty (20) ml of each test solution was sprayed on the seedling. Six (6) days after spraying, the number of the surviving Aphis gossypii parasitized on the leaves of the cucumber was examined, and a control value was calculated according to the following equation: Controlling value (%)={1−(Cb×Tai)/(Cai×Tb)}×100 wherein the symbols in the above equation represent as follows: Cb: the number of insects in a non-treated section before treatment Cai: the number of insects in a non-treated section on observation Tb: the number of insects in a treated section before treatment Tai: the number of insects in a […] the non-treated section represents a section where the test diluted solution prepared by diluting the formulation without the present compound as in Formulation Example 5 with the same amount of water as in the treated-section was used.

Assay [1] has as its system Nilaparvata lugens. Put plainly: Test Example 3: spray on rice seedling, Nilaparvata lugens larvae released. The note with it: 144 h, 10 ml sprayed on rice seedling, third-fourth instar larvae, after 6 days. The protocol:
On the other hand, a rice seedling (the second leaf stage) planted in a polyethylene cup was sprayed with 10 ml of each test solution. After air-drying, 20 third-fourth instar larvae of Nilaparvata lugens were released, and kept in the greenhouse of 25° C. After 6 days, the number of insect of living Nilaparvata lugens parasitized on the rice was examined, and a control value was calculated according to the following equation: Controlling value (%)={1−(Cb×Tai)/(Cai×Tb)}×100 wherein the symbols in the above equation represent as follows: Cb: the number of insects in a non-treated section before treatment Cai: the number of insects in a non-treated section on observation Tb: the number of insects in a treated section before treatment Tai: the number of insects in a […] the non-treated section represents a section where the test diluted solution prepared by diluting the formulation without the present compound as in Formulation Example 5 with the same amount of water as in the treated-section was used.

The subject of a further assay is Musca domestica. Put plainly: Test Example 8: treated filter paper with sucrose bait, Musca domestica. The note with it: 500 ppm, 0.7 ml on filter paper, female imagoes, after 24 hours. The protocol:
Each test solution was prepared by diluting a formulation containing any of the present compounds 1-4, 1-6, 1-8, 1-9, 1-10, 1-63 and 1-95 as obtained in Formulation Example 5, with water so as to give 500 ppm of the concentration of the active ingredient.
A filter paper having a diameter of 5.5 cm was spread on the bottom of a polyethylene cup having a diameter of 5.5 cm and each test solution (0.7 ml) was added dropwise onto the filter paper. As a bait sucrose (30 mg) was uniformly placed on the filter paper. Into the polyethylene cup, 10 female imagoes of Musca domestica were released and the cup was sealed with a lid. After 24 hours, the number of surviving Musca domestica was examined and the death rate of the pest was calculated according to the following equation: Death rate (%)=(Number of dead insects/Number of tested insects)×100

The subject of the next assay is Plutella xylostella. The experiment in a line: Test Example 6: spray on cabbage, Plutella xylostella larvae released. The note with it: 120 h, 20 mL/cup sprayed on cabbage, second instar larvae, 25° C., 5 days, read-out: death rate. As for the experimental part: Each test solution was prepared by diluting a formulation containing any of the present compounds 1-4, 1-5, 1-6, 1-8, 1-9, 1-10, 1-16, 1-18, 1-19, 1-20, 1-29, 1-46, 1-48, 1-49, 1-50, 1-63 and 1-76 as obtained in Formulation Example 5, with water so as to give 500 ppm of the concentration of the active ingredient.
On the other hand, Cabbage (the third leaf stage) planted in a polyethylene cup was sprayed with 20 mL/cup of each test solution. After the test solution was dried, the aerial part was cut off, and then placed in a 50 mL volume cup. Five (5) second instar larvae of Plutella xylostella were released into the cup, and the cup was sealed with a lid. After the cup was kept at 25° C. for 5 days, the number of living insects was counted. A death rate was calculated according to the following equation: Death rate (%)=(Number of dead insects/Number of tested insects)×100

Assay [2] relates to Nilaparvata lugens. The experiment in a line: Test Example 4: soil drench of rice seedling, Nilaparvata lugens larvae released. The note with it: 144 h, 5 ml drench at foot of rice seedling, larvae released after 7 days, counted 6 days later. As for the experimental part: On the other hand, a rice seedling (2 weeks after sowing, the second leaf stage) planted in a plastic cup was drenched at its foot with 5 ml of each test solution, and kept in a greenhouse of 25° C. for 7 days. Twenty (20) third-fourth instar larvae of Nilaparvata lugens were released, and further kept in the greenhouse for 6 days, then the number of insect of living Nilaparvata lugens parasitized on the rice was examined, and a control value was calculated according to the following equation: Controlling value (%)={1−(Cb×Tai)/(Cai×Tb)}×100 wherein the symbols in the above equation represent as follows: Cb: the number of insects in a non-treated section before treatment Cai: the number of insects in a non-treated section on observation Tb: the number of insects in a treated section before treatment Tai: the number of insects in a […] the non-treated section represents a section where the test diluted solution prepared by diluting the formulation without the present compound as in Formulation Example 5 with the same amount of water as in the treated-section was used.

With `CCS(=O)(=O)c1cccnc1-c1nc2cc([S+]([O-])C(F)(F)F)cnc2o1` (stereo not shown) [present compound 1-4, 2-(3-ethylsulfonylpyridin-2-yl)-6-(trifluoromethylsulfinyl)oxazolo[5,4-b]pyridine], the pest or weed control at 500 ppm was at least 90% in the assay with Aphis gossypii, at least 90% in the assay on Nilaparvata lugens [1], at least 80% in the assay on Plutella xylostella and at least 90% in the assay on Nilaparvata lugens [2]. For the same compound, the death rate in the assay on Musca domestica was 100%.
In the case of `CCS(=O)(=O)c1cccnc1-c1nc2cc(S(=O)(=O)C(F)(F)F)cnc2o1` [present compound 1-5, 2-(3-ethylsulfonylpyridin-2-yl)-6-(trifluoromethylsulfonyl)oxazolo[5,4-b]pyridine], the pest or weed control at 500 ppm in the assay with Aphis gossypii is at least 90%; with Plutella xylostella, at least 80%.
Consider `CCSc1cc(C(F)(F)F)cnc1-c1nc2cc(SC(F)(F)F)ccc2o1` [present compound 1-16, 2-(3-ethylsulfanyl-5-trifluoromethylpyridine-2-yl)-5-(trifluoromethylsulfanyl)benzoxazole], for which the pest or weed control at 500 ppm in the assay on Plutella xylostella is at least 80%.
For the compound `CCS(=O)(=O)c1cc(C(F)(F)F)cnc1-c1nc2cc(SC(F)(F)F)ccc2o1` [present compound 1-18, 2-(3-ethylsulfonyl-5-trifluoromethylpyridine-2-yl)-5-(trifluoromethylsulfanyl)benzoxazole], the pest or weed control at 500 ppm in the assay on Aphis gossypii is at least 90%; with Nilaparvata lugens [1], at least 90%; in the assay on Plutella xylostella, at least 80%.
For `CCS(=O)(=O)c1cc(C(F)(F)F)cnc1-c1nc2cc(S(=O)(=O)C(F)(F)F)ccc2o1` [present compound 1-20, 2-(3-ethylsulfonyl-5-trifluoromethylpyridine-2-yl)-5-(trifluoromethylsulfonyl)benzoxazole], the pest or weed control at 500 ppm is at least 90% in the assay with Aphis gossypii and at least 80% in the assay on Plutella xylostella.
Regarding `CCSc1cccnc1-c1nc2cc([S+]([O-])C(F)(F)F)ccc2o1` (stereo not shown) [present compound 1-63, 2-(3-ethylsulfanylpyridine-2-yl)-5-(trifluoromethylsulfinyl)benzoxazole], the pest or weed control at 500 ppm in the assay with Aphis gossypii is at least 90%; in the assay with Plutella xylostella, at least 80%; in the assay on Nilaparvata lugens [2], at least 90%. Further, the death rate with Musca domestica is given as 100%.
In the case of `CCSc1cc(C(F)(F)F)cnc1-c1nc2cc([S+]([O-])C(F)(F)F)cnc2o1` (stereo not shown) [present compound 1-65, 2-(3-ethylsulfanyl-5-trifluoromethylpyridine-2-yl)-6-(trifluoromethylsulfinyl)oxazolo[5,4-b]pyridine], the pest or weed control at 500 ppm with Aphis gossypii was at least 90%.
As to `CCS(=O)(=O)c1ccc[n+]([O-])c1-c1nc2cc(S(=O)(=O)C(F)(F)F)ccc2o1` [present compound 1-76], the pest or weed control at 500 ppm in the assay on Aphis gossypii was at least 90%; with Nilaparvata lugens [1] it was at least 90%; with Plutella xylostella, at least 80%; in the assay on Nilaparvata lugens [2] it was at least 90%.
